Patent publication US6066628A, “Non-iron metalloporphyrins and methods of use” (Emory University, priority 1998, dated 2000)
Several values for one entry are separate records, joined by “and”; a condition that tells them apart may be missing. Equal entries are not always repeated. Where two headings read alike, the source gives them in different places.

How the values were obtained:
Y. enterocolitica [1] = assay: microbe, parasite or virus in culture; format: cell-based
M. smegmatis [2] = format: cell-based, Mycobacterium smegmatis; conditions: for antibacterial activity: M. smegmatis
[3] = test system: mammalian cells in culture; assay: Cytotoxicity in eukaryotic cell cultures; format: cell-based; conditions: human cells in culture
S. aureus [4] = format: cell-based, Staphylococcus aureus
E. faecalis = assay: Disc diffusion sensitivity test; format: cell-based, Enterococcus faecalis; conditions: disc ~50 μg MP; also: key: -: resistant; N: not determined
C. freundii = assay: Disc diffusion sensitivity test; format: cell-based, Citrobacter freundii
M. smegmatis [5] = assay: Disc diffusion sensitivity test; format: cell-based, Mycobacterium smegmatis; conditions: disc ~50 μg MP
N. meningitidis = assay: Disc diffusion sensitivity test; format: cell-based; conditions: disc ~50 μg MP
K. pneumoniae = assay: Disc diffusion sensitivity test; format: cell-based, Klebsiella pneumoniae
S. marcescens = assay: Disc diffusion sensitivity test; format: cell-based, Serratia marcescens
E. coli [6] = format: cell-based, Escherichia coli; conditions: E. coli DH-5 alpha hemA (Table 6)
Neisseria meningitidis = assay: Minimal inhibitory concentration; format: cell-based
[7] = test system: Streptococcus pyogenes JRS4; format: cell-based
Y. enterocolitica [8] = assay: Disc diffusion sensitivity test; format: cell-based; conditions: disc ~50 μg MP
Staphylococcus carnosus = assay: Disc diffusion sensitivity test; format: cell-based; conditions: 50 μg disc
[9] = test system: Mycobacterium bovis (BCG); format: cell-based
Bacillus subtilis = assay: Minimal inhibitory concentration; format: cell-based
Y. pseudotuberculosis = format: cell-based
M. bovis = format: cell-based, Mycobacterium bovis; conditions: disc ~50 μg MP
S. crevisieae = assay: Disc diffusion sensitivity test; format: cell-based, Saccharomyces cerevisiae; conditions: S. cerevisiae; disc ~50 μg MP
F. menigosepticum = assay: Disc diffusion sensitivity test; format: cell-based, Flavobacterium meningosepticum
S. pyogenes A = assay: Disc diffusion sensitivity test; format: cell-based, Streptococcus pyogenes; conditions: disc ~50 μg MP
K. oxytoca = assay: Disc diffusion sensitivity test; format: cell-based, Klebsiella oxytoca
M tuber. H37Pa = assay: Disc diffusion sensitivity test; format: cell-based, Mycobacterium tuberculosis; conditions: disc ~50 μg MP
Staphylococcus xylolus = assay: Disc diffusion sensitivity test; format: cell-based; conditions: 50 μg disc
B. subtilis = assay: Disc diffusion sensitivity test; format: cell-based, Bacillus subtilis; conditions: B. subtilis; disc ~50 μg MP
E. aerogenes = assay: Disc diffusion sensitivity test; format: cell-based, Enterobacter aerogenes
S. aureus [10] = assay: Disc diffusion sensitivity test; format: cell-based, Staphylococcus aureus
P. mirabills = assay: Disc diffusion sensitivity test; format: cell-based, Proteus mirabilis
E. coli [11] = assay: Disc diffusion sensitivity test; format: cell-based, Escherichia coli
E. coli EB53 (hemPR^+) = assay: Growth inhibition on Nutrient Broth Dipyridyl plates; conditions: NBD 0.1 mM plates
M tuber. H37Rv = assay: Disc diffusion sensitivity test; format: cell-based, Mycobacterium tuberculosis; conditions: disc ~50 μg MP
Ps. aeruginosa = assay: Disc diffusion sensitivity test; format: cell-based, Pseudomonas aeruginosa; conditions: disc ~50 μg MP; also: key: -: resistant; N: not determined

With `C=Cc1c(C)c2[n]3c1C=C1N=C(C=c4c(C)c(C(=O)O)c([n]4[Ga]3[Cl])=C(CC(=O)O)C3=NC(=C2)C(C)C3CCC(=O)O)C(CC)=C1C` (stereo not shown) [GA-Ce6, Ga-chlorin e6] the “antibacterial activity” value (Y. enterocolitica [1]) was “significantly less active”, the MIC (Y. enterocolitica [1]; in µg/mL) was 5 and 10 and the “antibacterial activity” value (M. smegmatis [2]) was “active”. The MIC (M. smegmatis [2]; M. smegmatis LR222, dark (Table 10)) was 0.4 µg/mL, the cytotoxicity [3] was “cytotoxic to human cells in culture” and the “antibacterial activity” value (S. aureus [4]; S. aureus) was “active”. The MIC (S. aureus [4]; S. aureus IR2419, dark (Table 10)) was 3.2 µg/mL.

`C=CC1=C(C)c2cc3[n-]c(cc4[n-]c(cc5nc(cc1n2)C(C)=C5C=C)c(C)c4CCC(=O)[O-])c(CCC(=O)[O-])c3C.[H+].[H+].[Mn+2]` [Mn-PPIX, Manganese protoporphyrin IX] was tested, and the “diameter (mm) of the inhibition zone” value (E. faecalis) was “-”, the “diameter (mm) of the inhibition zone” value (C. freundii; C. freundii, disc ~50 μg MP) was 22 mm and the “sensitive strains / strains tested (inhibition zones larger or equal 20 mm)” value (C. freundii; Citrobacter freundii, 50 μg disc) was 4/4. For the same compound, the “diameter (mm) of the inhibition zone” value (M. smegmatis [5]) was 25 mm, the “diameter (mm) of the inhibition zone” value (N. meningitidis) was 18 mm and the “diameter (mm) of the inhibition zone” value (K. pneumoniae; K. pneumoniae, disc ~50 μg MP) was “-”. For the same compound, the “sensitive strains / strains tested (inhibition zones larger or equal 20 mm)” value (K. pneumoniae; Klebsiella pneumoniae, 50 μg disc) was 9/13, the “diameter (mm) of the inhibition zone” value (S. marcescens; S. marcescens, disc ~50 μg MP) was “-” and the “sensitive strains / strains tested (inhibition zones larger or equal 20 mm)” value (S. marcescens; Serratia marcescens, 50 μg disc) was 2/3. For the same compound, the MIC (E. coli [6]) was > 10 µg/mL, the MIC (Neisseria meningitidis; N. meningitidis IR1072, 20 to 24 hours (Table 5)) was 2 µg/mL and the MIC (Neisseria meningitidis; Neisseria meningitidis (Table 4)) was 2 µg/mL. The sensitivity ([7]; S. pyogenes) was “resistant”, the MIC ([7]; S. pyogenes JRS4 (Table 4)) was > 4 µg/mL and the MIC ([7]; S. pyogenes JRS4, 20 to 24 hours (Table 5)) was > 4 µg/mL. The “diameter (mm) of the inhibition zone” value (Y. enterocolitica [8]) was 30 mm, the “Minimal inhibitory concentration (MIC)” value (Y. enterocolitica [1]) was 0.4 and the “antibacterial activity” value (Y. enterocolitica [1]) was “inhibitory”. For the same compound, the “sensitive strains / strains tested (inhibition zones larger or equal 20 mm)” value (Staphylococcus carnosus) was 1/1, the MIC ([9]; M. bovis (BCG) (Table 4)) was 0.8 µg/mL and the MIC ([9]; M. bovis (BCG), two weeks (Table 5)) was 0.8 µg/mL. For the same compound, the MIC (Bacillus subtilis; B. subtilis 3G18, 20 to 24 hours (Table 5)) was 1 µg/mL, the MIC (Bacillus subtilis; Bacillus subtilis (Table 4)) was 1 µg/mL and the MIC (Y. pseudotuberculosis; Y. pseudotuberculosis YP66 (Table 4)) was < 0.1 µg/mL. The MIC (Y. pseudotuberculosis; Y. pseudotuberculosis YP66 (Table 6), in µg/mL) was 1-2, the MIC (Y. pseudotuberculosis; Y. pseudotuberculosis, iron restricted NBD 0.1 mM, 20 to 24 hours (Table 5)) was 1 to 2 µg/mL and the “diameter (mm) of the inhibition zone” value (M. bovis) was 35 mm. For the same compound, the “antibacterial activity” value (M. smegmatis [2]) was “inhibitory”, the MIC (M. smegmatis [2]; M. smegmatis LR222 (Table 4)) was 0.5 µg/mL and the “Minimal inhibitory concentration (MIC)” value (M. smegmatis [2]; M. smegmatis LR222, LB + Tween 80 (Table 2)) was 0.8 µg/mL. For the same compound, the “diameter (mm) of the inhibition zone” value (S. crevisieae) was “-”, the “diameter (mm) of the inhibition zone” value (F. menigosepticum; F. meningosepticum, disc ~50 μg MP) was 17 mm and the “sensitive strains / strains tested (inhibition zones larger or equal 20 mm)” value (F. menigosepticum; Flavobacterium meningosepticum, 50 μg disc) was 1/1. The “diameter (mm) of the inhibition zone” value (S. pyogenes A) was “-”, the “diameter (mm) of the inhibition zone” value (K. oxytoca; K. oxytoca, disc ~50 μg MP) was “-” and the “sensitive strains / strains tested (inhibition zones larger or equal 20 mm)” value (K. oxytoca; Klebsiella oxytoca, 50 μg disc) was 1/1. It also gave an MIC (S. aureus [4]; S. aureus 8325-4 (Table 4)) of 1 µg/mL, an MIC (S. aureus [4]; S. aureus 8325-4 (Table 6), in µg/mL) of 3 and an MIC (S. aureus [4]; S. aureus 8325-4, 20 to 24 hours (Table 5)) of 3 µg/mL. For the same compound, the “Minimal inhibitory concentration (MIC)” value (S. aureus [4]; methicillin-resistant S. aureus IR219, Nutrient broth (Table 2)) was 3.2 µg/mL, the “diameter (mm) of the inhibition zone” value (M tuber. H37Pa) was “-” and the “sensitive strains / strains tested (inhibition zones larger or equal 20 mm)” value (Staphylococcus xylolus) was 1/1. The “diameter (mm) of the inhibition zone” value (B. subtilis) was 25 mm, the “diameter (mm) of the inhibition zone” value (E. aerogenes; E. aerogenes, disc ~50 μg MP) was “-” and the “sensitive strains / strains tested (inhibition zones larger or equal 20 mm)” value (E. aerogenes; Enterobacter aerogenes, 50 μg disc) was 1/1. The “diameter (mm) of the inhibition zone” value (S. aureus [10]; S. aureus, disc ~50 μg MP) was 23 mm, the “sensitive strains / strains tested (inhibition zones larger or equal 20 mm)” value (S. aureus [10]; Staphylococcus aureus, 50 μg disc) was 9/9 and the “diameter (mm) of the inhibition zone” value (P. mirabills; P. mirabilis, disc ~50 μg MP) was 22 mm. For the same compound, the “sensitive strains / strains tested (inhibition zones larger or equal 20 mm)” value (P. mirabills; Proteus mirabilis, 50 μg disc) was 2/2, the “diameter (mm) of the inhibition zone” value (E. coli [11]; E. coli, disc ~50 μg MP) was “-” and the “sensitive strains / strains tested (inhibition zones larger or equal 20 mm)” value (E. coli [11]; Escherichia coli, 50 μg disc) was 16/18. The inhibition of growth (E. coli EB53 (hemPR^+)) was “inhibited growth”, the “diameter (mm) of the inhibition zone” value (M tuber. H37Rv) was “-” and the “diameter (mm) of the inhibition zone” value (Ps. aeruginosa) was “-”.
